{"source": "ChEMBL document CHEMBL1144569", "about": "(Bioorg Med Chem, 2007)", "key": {"[1]": {"target": "Cannabinoid receptor 1 (Homo sapiens) (UniProt P21554)", "sequence (P21554 whole entry)": "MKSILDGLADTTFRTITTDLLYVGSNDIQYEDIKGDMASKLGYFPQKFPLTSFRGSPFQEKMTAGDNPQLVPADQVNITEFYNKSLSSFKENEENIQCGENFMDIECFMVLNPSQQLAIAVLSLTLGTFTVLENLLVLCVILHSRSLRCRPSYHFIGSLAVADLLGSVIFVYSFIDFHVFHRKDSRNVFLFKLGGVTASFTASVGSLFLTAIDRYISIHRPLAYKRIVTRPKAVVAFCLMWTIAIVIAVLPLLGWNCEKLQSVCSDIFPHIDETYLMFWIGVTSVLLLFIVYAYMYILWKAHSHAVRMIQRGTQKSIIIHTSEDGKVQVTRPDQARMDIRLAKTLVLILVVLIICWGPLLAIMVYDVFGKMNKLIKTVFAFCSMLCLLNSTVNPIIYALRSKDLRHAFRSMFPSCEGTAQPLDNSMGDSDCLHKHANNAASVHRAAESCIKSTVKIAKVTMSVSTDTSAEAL", "test": "Antagonist activity at CB1 receptor expressed in NG108-15 cells assessed as abrogation of 2-archidonoylglycerol-induced increase in intracellular free calcium levels", "type": "functional, cell-based"}, "Cannabinoid receptor 2 [2]": {"target": "T1, Cannabinoid receptor 2 (Homo sapiens, UniProt P34972)", "T1 sequence (P34972 whole entry)": "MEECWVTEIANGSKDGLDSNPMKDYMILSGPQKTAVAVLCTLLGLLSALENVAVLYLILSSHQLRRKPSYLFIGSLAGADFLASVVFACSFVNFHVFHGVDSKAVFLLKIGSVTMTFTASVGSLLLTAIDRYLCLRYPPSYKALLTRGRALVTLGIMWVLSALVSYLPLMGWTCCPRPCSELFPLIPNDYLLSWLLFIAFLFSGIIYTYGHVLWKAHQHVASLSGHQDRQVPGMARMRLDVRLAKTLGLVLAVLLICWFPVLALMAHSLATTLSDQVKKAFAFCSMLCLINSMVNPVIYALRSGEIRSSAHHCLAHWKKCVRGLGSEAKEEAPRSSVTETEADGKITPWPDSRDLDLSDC", "test": "Agonist activity at CB2 receptor expressed in HL60 cells assessed as increase in intracellular free calcium concentrations", "type": "functional, cell-based, HL-60"}, "Cannabinoid receptor 2 [3]": {"target": "T1, Cannabinoid receptor 2", "test": "Antagonist activity at CB2 receptor expressed in HL60 cells assessed as abrogation of 2-archidonoylglycerol-induced increase in intracellular free calcium levels", "type": "functional, cell-based", "details": "HL-60"}}, "note": "Activity calls are given as the source filed them. The rule behind the calls is not given here.", "data": [{"molecule": "CCCCC/C=C\\C/C=C\\C/C=C\\C/C=C\\CCCC(=O)OC(CO)CO", "note": "[2-ARACHIDONOYLGLYCEROL]", "values": [{"measurement": "Activity", "setting": "[1]", "result": "Active"}, {"measurement": "EC50", "setting": "Cannabinoid receptor 2 [2]", "result": 17, "unit": "nM"}, {"measurement": "Activity", "setting": "Cannabinoid receptor 2 [3]", "result": "Active"}]}]}
